Here are results for 28 compounds from patent US8710065B2, “Tricyclic inhibitors of kinases” (AbbVie Inc., priority 2011, dated 2014).

In this experiment the target is T1, GST-tagged-Wee1 kinase (Homo sapiens, UniProt P30291).
T1 construct: purchased Carnabio (Carna Biosciences) 05-177
T1 sequence (P30291 whole entry): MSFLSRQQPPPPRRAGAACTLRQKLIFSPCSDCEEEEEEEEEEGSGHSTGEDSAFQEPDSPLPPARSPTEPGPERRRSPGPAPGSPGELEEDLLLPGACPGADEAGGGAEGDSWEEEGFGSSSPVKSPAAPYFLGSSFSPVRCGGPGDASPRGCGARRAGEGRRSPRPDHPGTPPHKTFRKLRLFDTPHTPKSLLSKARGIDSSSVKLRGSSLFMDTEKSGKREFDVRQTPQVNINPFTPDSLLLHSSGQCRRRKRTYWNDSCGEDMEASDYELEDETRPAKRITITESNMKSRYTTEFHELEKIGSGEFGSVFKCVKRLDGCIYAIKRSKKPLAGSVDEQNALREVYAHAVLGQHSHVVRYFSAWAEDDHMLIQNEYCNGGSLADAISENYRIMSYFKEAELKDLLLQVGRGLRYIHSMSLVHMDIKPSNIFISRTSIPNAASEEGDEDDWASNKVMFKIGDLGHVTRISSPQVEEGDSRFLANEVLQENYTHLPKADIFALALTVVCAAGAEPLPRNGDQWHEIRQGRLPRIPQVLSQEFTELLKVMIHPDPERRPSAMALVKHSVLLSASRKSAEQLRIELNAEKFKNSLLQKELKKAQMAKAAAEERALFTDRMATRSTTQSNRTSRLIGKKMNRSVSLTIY
As to the kind of experiment: Wee1 time-resolved fluorescence equilibrium binding assay (displacement of Oregon Green-labeled ATP-competitive kinase probe). To be noted: read-out: Wee-1 inhibition (Ki). In short, it runs like this: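 Time-resolved fluorescence equilibrium binding with GST-Wee1, measuring displacement of a rapidly reversible Oregon Green-labelled ATP-competitive probe by competitive inhibitors; values reported as Ki.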
The term Ki denotes the equilibrium dissociation constant of an inhibitor or competing ligand from its target. As to `O=C1CN(c2ccc(Nc3ncc4c(=O)n(-c5c(Cl)cccc5Cl)c5nccn5c4n3)cc2)CCN1` [Example 143, 6-(2,6-dichlorophenyl)-2-{[4-(3-oxopiperazin-1-yl)phenyl]amino}imidazo[1,2-a]pyrimido[5,4-e]pyrimidin-5(6H)-one], the Ki is < 10 nM. In the case of `CC(C)N1Cc2cc(Nc3ncc4c(=O)n(-c5ccccc5Cl)c5nccn5c4n3)ccc2C(C)(C)C1` [Example 144, 6-(2-chlorophenyl)-2-{[4,4-dimethyl-2-(propan-2-yl)-1,2,3,4-tetrahydroisoquinolin-7-yl]amino}imidazo[1,2-a]pyrimido[5,4-e]pyrimidin-5(6H)-one] it was < 10 nM. In the case of `CC1(C)CN(CCCC(F)(F)F)Cc2cc(Nc3ncc4c(=O)n(-c5ccccc5Cl)c5nccn5c4n3)ccc21` [Example 145, 6-(2-chlorophenyl)-2-{[4,4-dimethyl-2-(4,4,4-trifluorobutyl)-1,2,3,4-tetrahydroisoquinolin-7-yl]amino}imidazo[1,2-a]pyrimido[5,4-e]pyrimidin-5(6H)-one], the Ki is < 10 nM. In the case of `CN1Cc2cc(Nc3ncc4c(=O)n(-c5ccccc5Cl)c5nccn5c4n3)ccc2C1(C)C` [Example 146, 6-(2-chlorophenyl)-2-[(1,1,2-trimethyl-2,3-dihydro-1H-isoindol-5-yl)amino]imidazo[1,2-a]pyrimido[5,4-e]pyrimidin-5(6H)-one] it was < 10 nM; in that of `CN1C(C)(C)c2ccc(Nc3ncc4c(=O)n(-c5ccccc5Cl)c5nccn5c4n3)cc2C1(C)C` [Example 147, 6-(2-chlorophenyl)-2-[(1,1,2,3,3-pentamethyl-2,3-dihydro-1H-isoindol-5-yl)amino]imidazo[1,2-a]pyrimido[5,4-e]pyrimidin-5(6H)-one], < 10 nM; in that of `COc1cc(Nc2ncc3c(=O)n(-c4c(Cl)cccc4Cl)c4nccn4c3n2)ccc1N1CCN(C)CC1` [Example 148, 6-(2,6-dichlorophenyl)-2-{[3-methoxy-4-(4-methylpiperazin-1-yl)phenyl]amino}imidazo[1,2-a]pyrimido[5,4-e]pyrimidin-5(6H)-one], < 10 nM. In the case of `CCN(CC)CCCOc1ccc(Nc2ncc3c(=O)n(-c4c(Cl)cccc4Cl)c4nccn4c3n2)cc1F` [Example 149, 6-(2,6-dichlorophenyl)-2-({4-[3-(diethylamino)propoxy]-3-fluorophenyl}amino)imidazo[1,2-a]pyrimido[5,4-e]pyrimidin-5(6H)-one] it was < 10 nM; in that of `CN1CCc2cc(Nc3ncc4c(=O)n(-c5c(Cl)cccc5Cl)c5nccn5c4n3)ccc2C1(C)C` [Example 150, 6-(2,6-dichlorophenyl)-2-[(1,1,2-trimethyl-1,2,3,4-tetrahydroisoquinolin-6-yl)amino]imidazo[1,2-a]pyrimido[5,4-e]pyrimidin-5(6H)-one], < 10 nM.

For `O=c1c2cnc(Nc3ccc(N4C[C@@H]5C[C@H]4CN5)cc3)nc2n2ccnc2n1-c1c(Cl)cccc1Cl` [Example 151, 2-({4-[(1S,45)-2,5-diazabicyclo[2.2.1]hept-2-yl]phenyl}amino)-6-(2,6-dichlorophenyl)imidazo[1,2-a]pyrimido[5,4-e]pyrimidin-5(6H)-one], the Ki was < 10 nM.

As for `CN1Cc2cc(Nc3ncc4c(=O)n(-c5c(Cl)cccc5Cl)c5nccn5c4n3)ccc2C(C)(C)C1` [Example 152, 6-(2,6-dichlorophenyl)-2-[(2,4,4-trimethyl-1,2,3,4-tetrahydroisoquinolin-7-yl)amino]imidazo[1,2-a]pyrimido[5,4-e]pyrimidin-5(6H)-one], the Ki is < 10 nM. On to `O=c1c2cnc(Nc3ccc(N4CCC(F)(F)CC4)cc3)nc2n2ccnc2n1-c1c(Cl)cccc1Cl` [Example 153, 6-(2,6-dichlorophenyl)-2-{[4-(4,4-difluoropiperidin-1-yl)phenyl]amino}imidazo[1,2-a]pyrimido[5,4-e]pyrimidin-5(6H)-one], for which the Ki is < 10 nM. The same measure for `O=c1c2cnc(Nc3ccc(N4CCCC(F)(F)C4)cc3)nc2n2ccnc2n1-c1c(Cl)cccc1Cl` [Example 154, 6-(2,6-dichlorophenyl)-2-{[4-(3,3-difluoropiperidin-1-yl)phenyl]amino}imidazo[1,2-a]pyrimido[5,4-e]pyrimidin-5(6H)-one]: < 10 nM.

Take `CC(C)N1CCN(c2ccc(Nc3ncc4c(=O)n(-c5c(Cl)cccc5Cl)c5nccn5c4n3)cc2F)CC1` [Example 155, 6-(2,6-dichlorophenyl)-2-({3-fluoro-4-[4-(propan-2-yl)piperazin-1-yl]phenyl}amino)imidazo[1,2-a]pyrimido[5,4-e]pyrimidin-5(6H)-one]: the Ki was < 10 nM. Regarding `O=c1c2cnc(Nc3ccc(N4CCNCC4)c(C(F)(F)F)c3)nc2n2ccnc2n1-c1c(Cl)cccc1Cl` [Example 156, 6-(2,6-dichlorophenyl)-2-{[4-(piperazin-1-yl)-3-(trifluoromethyl)phenyl]amino}imidazo[1,2-a]pyrimido[5,4-e]pyrimidin-5(6H)-one], the Ki is < 10 nM. As for `CC(C)c1cc(Nc2ncc3c(=O)n(-c4ccccc4Cl)c4nccn4c3n2)ccc1N1CCN(C)CC1` [Example 157, 6-(2-chlorophenyl)-2-{[4-(4-methylpiperazin-1-yl)-3-(propan-2-yl)phenyl]amino}imidazo[1,2-a]pyrimido[5,4-e]pyrimidin-5(6H)-one], the Ki is < 10 nM.

In the case of `CC(=O)N1CCN(c2ccc(Nc3ncc4c(=O)n(-c5c(F)cccc5Cl)c5nccn5c4n3)cc2)CC1` [Example 158, 2-{[4-(4-acetylpiperazin-1-yl)phenyl]amino}-6-(2-chloro-6-fluorophenyl)imidazo[1,2-a]pyrimido[5,4-e]pyrimidin-5(6H)-one], the Ki is < 10 nM. For `CC1(C)CNCc2cc(Nc3ncc4c(=O)n(-c5c(F)cccc5Cl)c5nccn5c4n3)ccc21` [Example 159, 6-(2-chloro-6-fluorophenyl)-2-[(4,4-dimethyl-1,2,3,4-tetrahydroisoquinolin-7-yl)amino]imidazo[1,2-a]pyrimido[5,4-e]pyrimidin-5(6H)-one], the Ki was in the range of 10 to 100 nM. Consider `O=c1c2cnc(Nc3ccc4c(c3)CNCC43CC3)nc2n2ccnc2n1-c1c(Cl)cc(F)cc1Cl` [Example 160, 6-(2,6-dichloro-4-fluorophenyl)-2-(2′,3′-dihydro-1′H-spiro[cyclopropane-1,4′-isoquinolin]-7′-ylamino)imidazo[1,2-a]pyrimido[5,4-e]pyrimidin-5(6H)-one], for which the Ki was < 10 nM. The same measure for `CCN1Cc2cc(Nc3ncc4c(=O)n(-c5ccccc5Cl)c5nccn5c4n3)ccc2C(C)(C)C1` [Example 161, 6-(2-chlorophenyl)-2-[(2-ethyl-4,4-dimethyl-1,2,3,4-tetrahydroisoquinolin-7-yl)amino]imidazo[1,2-a]pyrimido[5,4-e]pyrimidin-5(6H)-one]: < 10 nM. Regarding `CC1(C)CN(CC(F)(F)F)Cc2cc(Nc3ncc4c(=O)n(-c5ccccc5Cl)c5nccn5c4n3)ccc21` [Example 162, 6-(2-chlorophenyl)-2-{[4,4-dimethyl-2-(2,2,2-trifluoroethyl)-1,2,3,4-tetrahydroisoquinolin-7-yl]amino}imidazo[1,2-a]pyrimido[5,4-e]pyrimidin-5(6H)-one], the Ki lay in the range of 10 to 100 nM. For the compound `CC1(C)CN(Cc2ccc(-n3ccnc3)cc2)Cc2cc(Nc3ncc4c(=O)n(-c5ccccc5Cl)c5nccn5c4n3)ccc21` [Example 163, 6-(2-chlorophenyl)-2-({2-[4-(1H-imidazol-1-yl)benzyl]-4,4-dimethyl-1,2,3,4-tetrahydroisoquinolin-7-yl}amino)imidazo[1,2-a]pyrimido[5,4-e]pyrimidin-5(6H)-one], the Ki was < 10 nM.

As to `CC1(C)CN(CC2CCN(Cc3ccccc3)CC2)Cc2cc(Nc3ncc4c(=O)n(-c5ccccc5Cl)c5nccn5c4n3)ccc21` [Example 164, 2-({2-[(1-benzylpiperidin-4-yl)methyl]-4,4-dimethyl-1,2,3,4-tetrahydroisoquinolin-7-yl}amino)-6-(2-chlorophenyl)imidazo[1,2-a]pyrimido[5,4-e]pyrimidin-5(6H)-one], the Ki is < 10 nM. `CC(=O)N1Cc2cc(Nc3ncc4c(=O)n(-c5c(Cl)cc(F)cc5Cl)c5nccn5c4n3)ccc2C2(CC2)C1` [Example 165, 2-[(2′-acetyl-2′,3′-dihydro-1′H-spiro[cyclopropane-1,4′-isoquinolin]-7′-yl)amino]-6-(2,6-dichloro-4-fluorophenyl)imidazo[1,2-a]pyrimido[5,4-e]pyrimidin-5(6H)-one]: the Ki was < 10 nM. The same measure for `O=c1c2cnc(Nc3ccc(N4CCC(O)CC4)cc3)nc2n2ccnc2n1-c1c(Cl)cccc1Cl` [Example 166, 6-(2,6-dichlorophenyl)-2-{[4-(4-hydroxypiperidin-1-yl)phenyl]amino}imidazo[1,2-a]pyrimido[5,4-e]pyrimidin-5(6H)-one]: < 10 nM; for `O=c1c2cnc(Nc3ccc(C4CCCCC4)cc3)nc2n2ccnc2n1-c1c(Cl)cccc1Cl` [Example 167, 2-[(4-cyclohexylphenyl)amino]-6-(2,6-dichlorophenyl)imidazo[1,2-a]pyrimido[5,4-e]pyrimidin-5(6H)-one]: 10 to 100 nM; for `O=c1c2cnc(Nc3ccc(C4CCNC4)cc3)nc2n2ccnc2n1-c1c(Cl)cccc1Cl` (stereo not shown) [Example 168, 6-(2,6-dichlorophenyl)-2-{[4-(pyrrolidin-3-yl)phenyl]amino}imidazo[1,2-a]pyrimido[5,4-e]pyrimidin-5(6H)-one]: < 10 nM.

For the compound `O=c1c2cnc(Nc3ccc(N4CCOCC4)cc3)nc2n2ccnc2n1-c1c(Cl)cccc1Cl` [Example 169, 6-(2,6-dichlorophenyl)-2-{[4-(morpholin-4-yl)phenyl]amino}imidazo[1,2-a]pyrimido[5,4-e]pyrimidin-5(6H)-one], the Ki was < 10 nM.

For `CC1(C)CN(CC(F)(F)F)Cc2cc(Nc3ncc4c(=O)n(-c5c(Cl)cccc5Cl)c5nccn5c4n3)ccc21` [Example 170, 6-(2,6-dichlorophenyl)-2-{[4,4-dimethyl-2-(2,2,2-trifluoroethyl)-1,2,3,4-tetrahydroisoquinolin-7-yl]amino}imidazo[1,2-a]pyrimido[5,4-e]pyrimidin-5(6H)-one], the Ki was 10 to 100 nM.
